Reference: patent publication US20230172207A1 (BASF SE, priority 2020, published 2023)

Tests used:
[1] = tested on: Colletotrichum orbiculare; test: Micro titer plate test against Colletotrichum orbiculare causing anthracnose (COLLLA); format: cell-based
[2] = tested on: Pyrenophora teres (wt); test: Micro titer plate test against Pyrenophora teres causing net blotch on barley (PYRNTE wt); format: cell-based
[3] = tested on: Microdochium nivale; format: cell-based
[4] = tested on: Leptosphaeria nodorum; test: Micro titer plate test against Leptosphaeria nodorum causing wheat leaf spots (LEPTNO); format: cell-based
[5] = tested on: Pyricularia oryzae; test: microbe, parasite or virus in culture; format: cell-based; settings: 0.016 ppm, relative growth vs compound-free control (100%), 7 days
[6] = tested on: Phakopsora pachyrhizi (F129L); test: Protective control of soybean rust on soybeans (PHAKPA P2); format: in vivo; settings: soybean rust F129L
[7] = tested on: Phakopsora pachyrhizi (F129L); test: Protective control of soybean rust on soybeans (PHAKPA P6); format: in vivo; settings: soybean rust F129L
[8] = tested on: Pyrenophora teres (F129L); test: Micro titer plate test against Pyrenophora teres causing net blotch on barley (PYRNTE F129L); format: cell-based; settings: 0.25 ppm, relative growth vs compound-free control (100%), 7 days
[9] = tested on: Alternaria solani (wt); test: microbe, parasite or virus in culture; format: cell-based
[10] = tested on: Alternaria solani (F129L); test: Micro titer plate test against Alternaria solani causing early blight (ALTESO F129L); format: cell-based; settings: 4 ppm, relative growth vs compound-free control (100%), 7 days

## CNC(=O)/C(=N/OC)c1cccc(C)c1CO/N=C(\C)c1cc(F)cc(F)c1 [compound 84]
[1]
  Fungal growth (%) COLLLA: 33%
[2]
  Fungal growth (%) PYRNTE wt: 39%
[3]
  Fungal growth (%) MONGNI: 32%
[4]
  Fungal growth (%) LEPTNO: 60%
[5]
  Fungal growth (%) PYRIOR: 48%
[6]; protective P2, 4 ppm
  % PHAKPA (F129L) Disease level, P2 at 4 ppm: 0%
[6]; protective P2, 16 ppm
  % PHAKPA (F129L) Disease level, P2 at 16 ppm: 0%
[7]; protective P6, 4 ppm
  % PHAKPA (F129L) Disease level, P6 at 4 ppm: 0%
[7]; protective P6, 16 ppm
  % PHAKPA (F129L) Disease level, P6 at 16 ppm: 0%
[8]
  Fungal growth (%) PYRNTE F129L: 49%
[9]
  Fungal growth (%) ALTESO wt: 43%
[10]
  Fungal growth (%) ALTEO F129L: 39%
